Assay results published in patent US20130281362A1, “ANTIVIRAL AGENT” (priority 2011, published 2013).

System: influenza A virus strain A/Aichi/02/68 (H3N2)
Set-up: species or system non-inbred male white mice
Details: mouse, in vivo, 60 mg/kg

In the case of CCOC(=O)c1c(CSc2ccccc2)n(C)c2cc(Br)c(O)c(CN(C)C)c12 [Arbidol 970609], the Death rate is reported as 10/15, the “Increase in MST” value is reported as 2.6 days and the “MST” value is reported as 9.3 days. For the same molecule, the “Protection against death (%)” value was 33.3%.
